This note sets out measurements from patent US11845770B2, “Ascaroside derivatives and methods of use” (California Institute of Technology, priority 2019, dated 2023).

Series [1] is described as follows: Stability in plasma (human). In kind it is in vitro ADME. The conditions noted are these: after 120 minutes, 37° C. How it is done: (§1) The pH of plasma was adjusted to 7.4±0.1 if required. 1 mM intermediate solution was prepared by diluting 10 μL of the 10 mM stock solution of 1 with 90 μL DMSO; 1 mM intermediate of positive control propantheline bromide was prepared by diluting 10 μL of the stock solution with 90 μL ultra-pure water. 100 μM dosing solution was prepared by diluting 10 μL of the 1 mM intermediate solution with 90 μL of 45% MeOH/H2O. 98 μL of blank plasma was spiked with 2 μL of the 100 μM dosing solution to achieve a final concentration of 2 μM of the compound in duplicate. Samples were incubated at 37° C. in a water bath. At each time point (0, 10, 30, 60 and 120 min), 400 μL of stop solution (200 ng/mL tolbutamide plus 200 ng/mL labetalol in 50% ACN/MeOH) was added and was mixed thoroughly to precipitate protein. Sample plates were centrifuged at 4,000 rpm for 10 min. An aliquot of supernatant (100 μL) was transferred from each well and was mixed with 200 μL ultra-pure water. The samples were shaken at 800 rpm for about 10 min before LC/MS/MS analysis.
(§2) The remaining percentage of compound 1 (test article) after incubation was calculated according to the following equation.

The nature of series [2]: Stability in plasma (rat). In kind it is in vitro ADME. The conditions noted are these: after 120 minutes, 37° C. How it is done: as §1, §2
Series [3] relates to BEAS-2B human lung epithelial cells. The series is described as follows: Stimulation of BEAS-2B human lung epithelial cells, cytokine expression. The conditions noted are these: 48 h. In kind it is cell-based. How it is done: BEAS-2B cells were maintained in Bronchial Epithelial Cell Growth Basal Medium (BEBM) containing all the recommended supplements for the Bronchial Epithelial Cell Growth Medium (BEGM; Lonza #CC-4175) and allowed to attain approximately 70% confluency with media changed every 2-3 days at 37° C. with 5% (v/v) CO2. Tissue culture flasks/vessels were pre-coated with a mixture of 0.01 mg/mL fibronectin (Sigma), 0.03 mg/ml bovine collagen type I (Sigma) and 0.01 mg/mL bovine serum albumin dissolved in the BEBM. BEAS-2B cells were seeded with 0.5 ml of 1×10^6 cells/mL in BEGM per well on 24-well plates and incubated overnight at 37° C. with 5% (v/v) CO2. The cells are pre-treated with different concentrations of compounds (0, 1.0, 10, 100, 1000 μM) for 1 hour prior to stimulation. To stimulate the cells, 10 ng/mL of Interleukin-1 beta (IL-1β), 10 ng/mL of Lipopolysaccharides (LPS), or 20 ng/mL of IL-1$ is added to the wells without removing the media and incubated for 48 hours at 37° C. with 5% (v/v) CO2. Supernatants were collected and stored at −80° C. until quantitative detection assays are performed. Human Eotaxin, Monocyte Chemoattractant Protein-1 (MCP-1), Interleukin-6 (IL-6), Interleukin-25 (IL-25), Interleukin-33 (IL-33), Thymic stromal lymphopoietin (TSLP), and Granulocyte-Macrophage Colony-Stimulating Factor (GM-CSF) released from supernatants collected post stimulation were measured using Human Magnetic Luminex® Assay Kit. Human CCL5/RANTES was measured using an Enzyme-Linked Immunosorbent Assay (ELISA)-based analysis.

Where [4] appears, read: 10 ng/mL IL-1β, compound concentration series, FIG. 10A.
The mark [5] stands for this setting: 10 ng/mL IL-1β, compound concentration series, FIG. 10B.
[6] abbreviates: 10 ng/mL LPS, compound concentration series, FIG. 11A.
[7] abbreviates: 10 ng/mL LPS, compound concentration series, FIG. 11B.
Setting [8] is: at 100 μM, 10 ng/mL IL-1β, FIG. 10A.
Setting [9] is: at 100 μM, 10 ng/mL IL-1β, FIG. 10B.

Each structure is given as a SMILES string.

For the molecule `C[C@H](CC/C=C/C(=O)O)O[C@@H]1O[C@@H](C)[C@H](O)C[C@H]1O` [ascr #7, reference compound], the “remaining percentage after incubation” value in series [1] is 89.8%. The “remaining percentage after incubation” value in series [2] is 99.8%. In series [3] (setting [4]), the “percent inhibition relative to Stimulated of IL-6 expression” value is reported as “did not show convincing inhibition”; the “percent inhibition relative to Stimulated of IL-8 expression” value is “did not show convincing inhibition”; the “percent inhibition relative to Stimulated of IL-25 expression” value is recorded as “statistically significant, dose-dependent inhibition”; the “percent inhibition relative to Stimulated of IL-33 expression” value is listed as “did not show convincing inhibition”. In series [3] (setting [5]), the “percent inhibition relative to Stimulated of Eotaxin expression” value is reported as “statistically significant, dose-dependent inhibition”; the “percent inhibition relative to Stimulated of GM-CSF expression” value was “did not demonstrate convincing inhibition”; the “percent inhibition relative to Stimulated of MCP-1 expression” value is “did not demonstrate convincing inhibition”; the “percent inhibition relative to Stimulated of TSLP expression” value is “did not demonstrate convincing inhibition”. In series [3] (setting [6]), the “percent inhibition relative to Stimulated of IL-6 expression” value was “did not show convincing inhibition”, the “percent inhibition relative to Stimulated of IL-8 expression” value is on record as “did not show convincing inhibition”, the “percent inhibition relative to Stimulated of IL-25 expression” value was “did not show convincing inhibition” and the “percent inhibition relative to Stimulated of IL-33 expression” value is listed as “did not show convincing inhibition”. Moreover, in series [3] (setting [7]), the “percent inhibition relative to Stimulated of GM-CSF expression” value is given as “did not show convincing inhibition”, the “percent inhibition relative to Stimulated of MCP-1 expression” value was “did not show convincing inhibition” and the “percent inhibition relative to Stimulated of TSLP expression” value is recorded as “did not show convincing inhibition”. Also, the “percent inhibition relative to Stimulated of IL-25 expression” value in series [3] (20 ng/mL IL-1β, compound concentration series, FIG. 12) is “statistically significant, dose-dependent blocking”. Moreover, in series [3] (at 10 and 100 μM, 20 ng/mL IL-1β, FIG. 13), the “percent inhibition relative to Stimulated of Eotaxin expression” value is “statistically significant, almost complete blocking”.
On to `C[C@H](CC/C=C/C(=O)OC(C)(C)C)O[C@@H]1O[C@@H](C)[C@H](O)C[C@H]1O` [Compound 1, tert-butyl (2E,6R)-6-{[(2R,3R,5R,6S)-3,5-dihydroxy-6-methyloxan-2-yl]oxy}hept-2-enoate], for which the “remaining percentage after incubation” value in series [1] stood at 86.5%. In addition, the “remaining percentage after incubation” value in series [2] was determined as 19.2%. In addition, the “percent inhibition relative to Stimulated of IL-25 expression” value in series [3] (setting [4]) is “statistically significant, dose-dependent inhibition”. The “percent inhibition relative to Stimulated of Eotaxin expression” value in series [3] (setting [5]) was “statistically significant, dose-dependent inhibition”. For the same molecule, in series [3] (setting [8]), the “percent inhibition relative to Stimulated of IL-6 expression” value is reported as “statistically significant, complete inhibition”; the “percent inhibition relative to Stimulated of IL-8 expression” value is listed as “statistically significant, complete inhibition”; the “percent inhibition relative to Stimulated of IL-25 expression” value is on record as “statistically significant, complete inhibition”; the “percent inhibition relative to Stimulated of IL-33 expression” value is “statistically significant, complete inhibition”. For the same molecule, in series [3] (setting [9]), the “percent inhibition relative to Stimulated of GM-CSF expression” value is reported as “statistically significant, complete inhibition”; the “percent inhibition relative to Stimulated of MCP-1 expression” value was “statistically significant, complete inhibition”; the “percent inhibition relative to Stimulated of TSLP expression” value is reported as “statistically significant, complete inhibition”. Moreover, in series [3] (at 100 μM, 10 ng/mL LPS, FIG. 11A), the “inhibition of expression of multiple inflammatory cytokines (IL-6, IL-8, IL-25, IL-33)” value is “complete, statistically significant inhibition”. In addition, the “inhibition of expression of multiple inflammatory cytokines (GMCSF, MCP-1, TSLP)” value in series [3] (at 100 μM, 10 ng/mL LPS, FIG. 11B) is given as “statistically significant, complete inhibition”.
